Reference: publication PMC10654507, “A cleavable chimeric peptide with targeting and killing domains enhances LPS neutralization and antibacterial properties against multi-drug resistant E. coli” (Communications Biology, 2023)
Converted amounts (≈) assume the structure as drawn. Where two headings read alike, the source gives them in different places. Residues, ends and D or L forms follow the SMILES beside them. No end group written: not given here.

Columns and labels:
S. aureus CVCC546 = type: cell-based, Staphylococcus aureus
Method: (§1) The minimum inhibitory concentration (MIC) and minimum bactericidal concentration (MBC) of peptides were determined by the microtiter broth dilution method according to Clinical and Laboratory Standards Institute (CLSI) guidelines. […] PBS was used as the negative control. […] The MBC value was calculated as the lowest concentration of peptides resulting in a 99.9% reduction of the original inoculum. All experiments were repeated three times.

S. typhimurium CVCC533 = type: cell-based, Salmonella typhimurium
Method: as §1

[1] = test system: Staphylococcus aureus ATCC43300; type: cell-based; conditions: ATCC43300, 18 h
Method: as §1

Escherichia coli CVCC195 = type: cell-based
Method: as §1

[2] = test system: E. coli, S. typhimurium and S. aureus; type: cell-based; conditions: 18 h
Method: as §1

E. coli 0111: B4 LPS = assay: BC (BODIPY-TR-cadaverine) displacement assay, binding to LPS; design: species or system Escherichia coli; unit not given here; conditions: Fig. 4a source data, mean
Method: The binding of peptides to LPS was determined according to the method described previously[34],[59]. In brief, E. coli 0111: B4 LPS (40 μg/mL) and BODIPY-TR-cadaverine (BC) (10 μM) were mixed in 50 mM Tris buffer (pH = 7.4) in equal proportions and added to a 96-well black plate (180 μL/well) in the dark. Different concentrations of chimeric peptide R7 and its parental (20 μL) were added into each well and detected by a fluorescence spectrophotometry at room temperature (excitation wavelength 580 nm, emission wavelength 620 nm). The change in relative fluorescence was recorded and the BC displacement rate was calculated. Polymycin B (PMB) was used as the positive control.

[3] = lowest concentration giving 99.9% reduction of the inoculum, repeated three times
[4] = microtiter broth dilution, 10^5 CFU/mL, 37 °C, 16 ~ 18 h, repeated three times

Q: How did the MBC (S. aureus CVCC546; CVCC546, 18 h) turn out when CC(C)[C@H](NC(=O)[C@H](CCCCN)NC(=O)[C@H](Cc1c[nH]c2ccccc12)NC(=O)[C@H](CCCNC(=N)N)NC(=O)CNC(=O)[C@H](CCC(N)=O)NC(=O)[C@@H](NC(=O)[C@@H](N)CCCNC(=N)N)C(C)C)C(=O)N[C@@H](CCCNC(=N)N)C(=O)N[C@@H](C)C(=O)N[C@@H](CO)C(=O)N[C@@H](Cc1ccccc1)C(=O)N[C@@H](Cc1ccccc1)C(=O)N[C@@H](CCCCN)C(=O)O [LBP14, reference compound] (H-RVQGRWKVRASFFK-OH) was run?
A: >36.2 µM

Q: What about the MIC (S. aureus CVCC546; CVCC546, 18 h) of the same molecule?
A: 36.2 µM (≈ 63.9 µg/mL)

Q: And the MBC (S. typhimurium CVCC533; CVCC533, 18 h)?
A: 18.1 µM (≈ 31.9 µg/mL)

Q: And the MIC (S. typhimurium CVCC533; CVCC533, 18 h)?
A: 18.1 µM (≈ 31.9 µg/mL)

Q: What about the MBC [1] of the same molecule?
A: 36.2 µM (≈ 63.9 µg/mL)

Q: And the MIC [1]?
A: 36.2 µM (≈ 63.9 µg/mL)

Q: What about the MBC (Escherichia coli CVCC195; CVCC195, 18 h) of the same molecule?
A: 4.53 µM (≈ 8 µg/mL)

Q: And the MIC (Escherichia coli CVCC195; CVCC195, 18 h)?
A: 4.53 µM (≈ 8 µg/mL)

Q: Which MIC (S. aureus CVCC546; CVCC546, 18 h) does the source give for CSCC[C@H](NC(=O)[C@H](CCCNC(=N)N)NC(=O)[C@H](Cc1c[nH]c2ccccc12)NC(=O)[C@H](C)NC(=O)[C@H](Cc1c[nH]c2ccccc12)NC(=O)[C@H](CCCNC(=N)N)NC(=O)[C@H](Cc1c[nH]c2ccccc12)NC(=O)[C@H](C)NC(=O)[C@H](CCCCN)NC(=O)[C@H](Cc1ccccc1)NC(=O)[C@@H](N)CCCNC(=N)N)C(=O)N[C@@H](CCCCN)C(=O)N[C@@H](CCCCN)C(=O)N[C@@H](CC(C)C)C(=O)N[C@@H](C)C(=O)N[C@@H](C)C(=O)N1CCC[C@H]1C(=O)N[C@@H](CO)C(=O)O [R-L7] (H-RFKAWRWAWRMKKLAAPS-OH) here?
A: 18.1 µM (≈ 41.4 µg/mL)

Q: What about the MIC (S. typhimurium CVCC533; CVCC533, 18 h) of the same molecule?
A: 18.1 µM (≈ 41.4 µg/mL)

Q: And the MIC [1]?
A: 18.1 µM (≈ 41.4 µg/mL)

Q: And the MIC (Escherichia coli CVCC195; CVCC195, 18 h)?
A: 2.26 µM (≈ 5.17 µg/mL)

Q: Which results are given for CC(C)[C@H](NC(=O)[C@H](CCCCN)NC(=O)[C@H](Cc1c[nH]c2ccccc12)NC(=O)[C@H](CCCNC(=N)N)NC(=O)CNC(=O)[C@H](CCC(N)=O)NC(=O)[C@@H](NC(=O)[C@@H](N)CCCNC(=N)N)C(C)C)C(=O)N[C@@H](CCCNC(=N)N)C(=O)N[C@@H](C)C(=O)N[C@@H](CO)C(=O)N[C@@H](Cc1ccccc1)C(=O)N[C@@H](Cc1ccccc1)C(=O)N[C@@H](CCCCN)C(=O)N[C@@H](CCCNC(=N)N)C(=O)N[C@@H](CCCCN)C(=O)N[C@@H](CCCNC(=N)N)C(=O)O [LBP14-RKR] (H-RVQGRWKVRASFFKRKR-OH)?
A: MIC (S. aureus CVCC546; CVCC546, 18 h): 9.06 µM (≈ 20 µg/mL); MIC (S. typhimurium CVCC533; CVCC533, 18 h): 4.53 µM (≈ 9.99 µg/mL); MIC [1]: 4.53 µM (≈ 9.99 µg/mL); MIC (Escherichia coli CVCC195; CVCC195, 18 h): 2.26 µM (≈ 4.98 µg/mL)

Q: How did the MBC (S. aureus CVCC546; CVCC546, 18 h) turn out when “RVQGRWKVRASFFKEAAAKEAAAKFKAWRWAWRMKKLAAPS [A7]” was run?
A: >36.2 µM

Q: And the MIC (S. aureus CVCC546; CVCC546, 18 h)?
A: >36.2 µM

Q: And the MBC (S. typhimurium CVCC533; CVCC533, 18 h)?
A: >36.2 µM

Q: What about the MIC (S. typhimurium CVCC533; CVCC533, 18 h) of the same molecule?
A: >36.2 µM

Q: And the “antibacterial activity (MIC)” value [2]?
A: ≥ 18.1 µM

Q: And the MBC [1]?
A: >36.2 µM

Q: What about the MIC [1] of the same molecule?
A: >36.2 µM

Q: And the MBC (Escherichia coli CVCC195; CVCC195, 18 h)?
A: 36.2 µM

Q: And the MIC (Escherichia coli CVCC195; CVCC195, 18 h)?
A: 36.2 µM

Q: Which results are given for CSCC[C@H](NC(=O)[C@H](CCCNC(=N)N)NC(=O)[C@H](Cc1c[nH]c2ccccc12)NC(=O)[C@H](C)NC(=O)[C@H](Cc1c[nH]c2ccccc12)NC(=O)[C@H](CCCNC(=N)N)NC(=O)[C@H](Cc1c[nH]c2ccccc12)NC(=O)[C@H](C)NC(=O)[C@H](CCCCN)NC(=O)[C@H](Cc1ccccc1)NC(=O)[C@H](CO)NC(=O)CNC(=O)CNC(=O)CNC(=O)CNC(=O)[C@H](CCCCN)NC(=O)[C@H](Cc1ccccc1)NC(=O)[C@H](Cc1ccccc1)NC(=O)[C@H](CO)NC(=O)[C@H](C)NC(=O)[C@H](CCCNC(=N)N)NC(=O)[C@@H](NC(=O)[C@H](CCCCN)NC(=O)[C@H](Cc1c[nH]c2ccccc12)NC(=O)[C@H](CCCNC(=N)N)NC(=O)CNC(=O)[C@H](CCC(N)=O)NC(=O)[C@@H](NC(=O)[C@@H](N)CCCNC(=N)N)C(C)C)C(C)C)C(=O)N[C@@H](CCCCN)C(=O)N[C@@H](CCCCN)C(=O)N[C@@H](CC(C)C)C(=O)N[C@@H](C)C(=O)N[C@@H](C)C(=O)N1CCC[C@H]1C(=O)N[C@@H](CO)C(=O)O [G7] (H-RVQGRWKVRASFFKGGGGSFKAWRWAWRMKKLAAPS-OH)?
A: MBC (S. aureus CVCC546; CVCC546, 18 h): >36.2 µM; MIC (S. aureus CVCC546; CVCC546, 18 h): >36.2 µM; MIC (S. typhimurium CVCC533; CVCC533, 18 h): >36.2 µM; antibacterial activity (MIC) [2]: ≥ 18.1 µM; MBC [1]: >36.2 µM; MIC [1]: >36.2 µM; MBC (Escherichia coli CVCC195; CVCC195, 18 h): 18.1 µM (≈ 75.9 µg/mL); MIC (Escherichia coli CVCC195; CVCC195, 18 h): 18.1 µM (≈ 75.9 µg/mL)

Q: CC(C)[C@H](NC(=O)[C@H](CCCCN)NC(=O)[C@H](Cc1c[nH]c2ccccc12)NC(=O)[C@H](CCCNC(=N)N)NC(=O)CNC(=O)[C@H](CCC(N)=O)NC(=O)[C@@H](NC(=O)[C@@H](N)CCCNC(=N)N)C(C)C)C(=O)N[C@@H](CCCNC(=N)N)C(=O)N[C@@H](C)C(=O)N[C@@H](CO)C(=O)N[C@@H](Cc1ccccc1)C(=O)N[C@@H](Cc1ccccc1)C(=O)N[C@@H](CCCCN)C(=O)N[C@@H](CCCNC(=N)N)C(=O)N[C@@H](CCCCN)C(=O)N[C@@H](CCCNC(=N)N)C(=O)N[C@@H](CCCNC(=N)N)C(=O)O [LBP14-RKRR] (H-RVQGRWKVRASFFKRKRR-OH) was tested. Which MBC (S. aureus CVCC546; CVCC546, 18 h) did it give?
A: 9.06 µM (≈ 21.4 µg/mL)

Q: And the MIC (S. aureus CVCC546; CVCC546, 18 h)?
A: 9.06 µM (≈ 21.4 µg/mL)

Q: And the MIC (S. typhimurium CVCC533; CVCC533, 18 h)?
A: 4.53 µM (≈ 10.7 µg/mL)

Q: And the MIC [1]?
A: 4.53 µM (≈ 10.7 µg/mL)

Q: And the MBC (Escherichia coli CVCC195; CVCC195, 18 h)?
A: 2.26 µM (≈ 5.34 µg/mL)

Q: And the MIC (Escherichia coli CVCC195; CVCC195, 18 h)?
A: 2.26 µM (≈ 5.34 µg/mL)

Q: Which MBC (S. aureus CVCC546; [3]) does the source give for polymyxin B [PMB, reference compound] here?
A: >64 µM

Q: What about the MIC (S. aureus CVCC546; [4]) of the same molecule?
A: >64 µM

Q: And the “binding affinity to LPS” value (E. coli 0111: B4 LPS; peptide concentration 0.05 μM)?
A: 10.8258

Q: And the “binding affinity to LPS” value (E. coli 0111: B4 LPS; peptide concentration 0.1 μM)?
A: 13.138

Q: What about the “binding affinity to LPS” value (E. coli 0111: B4 LPS; peptide concentration 0.5 μM) of the same molecule?
A: 19.3303

Q: What about the “binding affinity to LPS” value (E. coli 0111: B4 LPS; peptide concentration 1 μM) of the same molecule?
A: 24.2435

Q: What about the “binding affinity to LPS” value (E. coli 0111: B4 LPS; peptide concentration 5 μM) of the same molecule?
A: 53.9917

Q: And the “binding affinity to LPS” value (E. coli 0111: B4 LPS; peptide concentration 10 μM)?
A: 65.3662

Q: And the “binding affinity to LPS” value (E. coli 0111: B4 LPS; peptide concentration 50 μM)?
A: 89.1421

Q: What about the “binding affinity to LPS” value (E. coli 0111: B4 LPS; peptide concentration 100 μM) of the same molecule?
A: 85.6684

Q: What about the MBC (S. typhimurium CVCC533; [3]) of the same molecule?
A: 8 µM

Q: What about the MIC (S. typhimurium CVCC533; [4]) of the same molecule?
A: 8 µM

Q: What about the MBC (Escherichia coli CVCC195; [3]) of the same molecule?
A: 1 µM

Q: What about the MIC (Escherichia coli CVCC195; [4]) of the same molecule?
A: 1 µM
